Measured values from PubChem BioAssay AID1963853 (Molecular Pharmacology Branch, DTP, NCI, 2024).

System: 266295-075-R-J1-PDC spheroid viability
Assay: Anticancer human tumor 266295-075-R-J1-PDC patient-derived head and neck squamous carcinoma cell line growth inhibition [POLQ]
Conditions: spheroids with HUVEC and MSC; for IC50: curve of first compound; for viability, T/C: stronger effect = lower value
Outline: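 Patient-derived tumour cells were co-cultured with HUVEC and mesenchymal stem cells as multicellular spheroids at 37 °C. They were treated with POLQ inhibitors (novobiocin, ART-558, RP6685) alone or combined with other agents. Top concentrations were at or near clinical Cmax (otherwise 10 microM; SN-38 at 1 microM), decreasing in half-log steps.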

[1] = second compound 0.0316 µM, first compound 0.00316 µM
[2] = second compound 0.0316 µM, first compound 0.01 µM
[3] = second compound 0.0316 µM, first compound 0.0316 µM
[4] = second compound 0.0316 µM, first compound 0.1 µM
[5] = second compound 0.1 µM, first compound 0.00316 µM
[6] = second compound 0.1 µM, first compound 0.01 µM
[7] = second compound 0.1 µM, first compound 0.0316 µM
[8] = second compound 0.1 µM, first compound 0.1 µM
[9] = second compound 0.316 µM, first compound 0.00316 µM
[10] = second compound 0.316 µM, first compound 0.01 µM
[11] = second compound 0.316 µM, first compound 0.0316 µM
[12] = second compound 0.316 µM, first compound 0.1 µM
[13] = second compound 1 µM, first compound 0.00316 µM
[14] = second compound 1 µM, first compound 0.01 µM
[15] = second compound 1 µM, first compound 0.0316 µM
[16] = second compound 1 µM, first compound 0.1 µM
[17] = second compound 3.16 µM, first compound 0.00316 µM
[18] = second compound 3.16 µM, first compound 0.01 µM
[19] = second compound 3.16 µM, first compound 0.0316 µM
[20] = second compound 3.16 µM, first compound 0.1 µM
[21] = second compound 10 µM, first compound 0.00316 µM
[22] = second compound 10 µM, first compound 0.01 µM
[23] = second compound 10 µM, first compound 0.0316 µM
[24] = second compound 10 µM, first compound 0.1 µM
[25] = second compound 0.0316 µM, first compound 0.316 µM
[26] = second compound 0.0316 µM, first compound 1 µM
[27] = second compound 0.1 µM, first compound 0.316 µM
[28] = second compound 0.1 µM, first compound 1 µM
[29] = second compound 0.316 µM, first compound 0.316 µM
[30] = second compound 0.316 µM, first compound 1 µM
[31] = second compound 1 µM, first compound 0.316 µM
[32] = second compound 1 µM, first compound 1 µM
[33] = second compound 3.16 µM, first compound 0.316 µM
[34] = second compound 3.16 µM, first compound 1 µM
[35] = second compound 10 µM, first compound 0.316 µM
[36] = second compound 10 µM, first compound 1 µM
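Further: spheroids exposed to compounds for seven days before readout.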

SMILES: CC[C@@]1(O)C(=O)OCc2c1cc1n(c2=O)Cc2cc3c(CN(C)C)c(O)ccc3nc2-1 + COC1C(OC(N)=O)C(O)C(Oc2ccc3c(O)c(NC(=O)c4ccc(O)c(CC=C(C)C)c4)c(=O)oc3c2C)OC1(C)C
- IC50 (second compound 0.0316 µM): > 100 nM
- IC50 (second compound 0.1 µM): > 100 nM
- IC50 (second compound 0.316 µM): > 100 nM
- IC50 (second compound 1 µM): > 100 nM
- IC50 (second compound 3.16 µM): > 100 nM
- IC50 (second compound 10 µM): > 100 nM
- viability, T/C (second compound 0.0316 µM, first compound 0.000316 µM): 84.1%
- viability, T/C (second compound 0.0316 µM, first compound 0.001 µM): 99.8%
- viability, T/C [1]: 84.9%
- viability, T/C [2]: 96.9%
- viability, T/C [3]: 89.4%
- viability, T/C [4]: 104%
- viability, T/C (second compound 0.1 µM, first compound 0.000316 µM): 87.2%
- viability, T/C (second compound 0.1 µM, first compound 0.001 µM): 87.7%
- viability, T/C [5]: 90.5%
- viability, T/C [6]: 100%
- viability, T/C [7]: 103%
- viability, T/C [8]: 88%
- viability, T/C (second compound 0.316 µM, first compound 0.000316 µM): 102%
- viability, T/C (second compound 0.316 µM, first compound 0.001 µM): 85.4%
- viability, T/C [9]: 75.8%
- viability, T/C [10]: 98.2%
- viability, T/C [11]: 89.4%
- viability, T/C [12]: 89.1%
- viability, T/C (second compound 1 µM, first compound 0.000316 µM): 99%
- viability, T/C (second compound 1 µM, first compound 0.001 µM): 90.8%
- viability, T/C [13]: 109%
- viability, T/C [14]: 89.2%
- viability, T/C [15]: 114%
- viability, T/C [16]: 100%
- viability, T/C (second compound 3.16 µM, first compound 0.000316 µM): 114%
- viability, T/C (second compound 3.16 µM, first compound 0.001 µM): 97%
- viability, T/C [17]: 85.3%
- viability, T/C [18]: 91.2%
- viability, T/C [19]: 88.3%
- viability, T/C [20]: 96.9%
- viability, T/C (second compound 10 µM, first compound 0.000316 µM): 95.8%
- viability, T/C (second compound 10 µM, first compound 0.001 µM): 98.5%
- viability, T/C [21]: 97.8%
- viability, T/C [22]: 107%
- viability, T/C [23]: 95.4%
- viability, T/C [24]: 94.5%

SMILES: CCc1c2c(nc3ccc(O)cc13)-c1cc3c(c(=O)n1C2)COC(=O)[C@]3(O)CC + COC1C(OC(N)=O)C(O)C(Oc2ccc3c(O)c(NC(=O)c4ccc(O)c(CC=C(C)C)c4)c(=O)oc3c2C)OC1(C)C
- IC50 (second compound 0.0316 µM): > 1000 nM
- IC50 (second compound 0.1 µM): > 1000 nM
- IC50 (second compound 0.316 µM): > 1000 nM
- IC50 (second compound 1 µM): > 1000 nM
- IC50 (second compound 3.16 µM): > 1000 nM
- IC50 (second compound 10 µM): > 1000 nM
- viability, T/C [1]: 91%
- viability, T/C [2]: 109%
- viability, T/C [3]: 89.8%
- viability, T/C [4]: 105%
- viability, T/C [25]: 96.7%
- viability, T/C [26]: 70.2%
- viability, T/C [5]: 90.1%
- viability, T/C [6]: 99.2%
- viability, T/C [7]: 86.6%
- viability, T/C [8]: 103%
- viability, T/C [27]: 108%
- viability, T/C [28]: 79.3%
- viability, T/C [9]: 99.7%
- viability, T/C [10]: 82.9%
- viability, T/C [11]: 85.6%
- viability, T/C [12]: 109%
- viability, T/C [29]: 100%
- viability, T/C [30]: 69.7%
- viability, T/C [13]: 93.5%
- viability, T/C [14]: 79.2%
- viability, T/C [15]: 91.1%
- viability, T/C [16]: 94.5%
- viability, T/C [31]: 99.5%
- viability, T/C [32]: 69.9%
- viability, T/C [17]: 84.4%
- viability, T/C [18]: 90.6%
- viability, T/C [19]: 97.9%
- viability, T/C [20]: 104%
- viability, T/C [33]: 96.8%
- viability, T/C [34]: 65.5%
- viability, T/C [21]: 89.5%
- viability, T/C [22]: 89%
- viability, T/C [23]: 107%
- viability, T/C [24]: 112%
- viability, T/C [35]: 106%
- viability, T/C [36]: 55.4%

SMILES: Nc1ccn(C2OC(CO)C(O)C2(F)F)c(=O)n1 (stereo unspecified) + COC1C(OC(N)=O)C(O)C(Oc2ccc3c(O)c(NC(=O)c4ccc(O)c(CC=C(C)C)c4)c(=O)oc3c2C)OC1(C)C
- IC50 (second compound 0.0316 µM): > 10000 nM
- IC50 (second compound 0.1 µM): > 10000 nM
- IC50 (second compound 0.316 µM): > 10000 nM
- IC50 (second compound 1 µM): > 10000 nM
- IC50 (second compound 3.16 µM): > 10000 nM
- IC50 (second compound 10 µM): > 10000 nM
- viability, T/C [3]: 109%
- viability, T/C [4]: 82%
- viability, T/C [25]: 77.3%
- viability, T/C [26]: 101%
- viability, T/C (second compound 0.0316 µM, first compound 3.16 µM): 81.3%
- viability, T/C (second compound 0.0316 µM, first compound 10 µM): 77.9%
- viability, T/C [7]: 107%
- viability, T/C [8]: 91.9%
- viability, T/C [27]: 82.6%
- viability, T/C [28]: 84%
- viability, T/C (second compound 0.1 µM, first compound 3.16 µM): 91.1%
- viability, T/C (second compound 0.1 µM, first compound 10 µM): 75.2%
- viability, T/C [11]: 100%
- viability, T/C [12]: 85.9%
- viability, T/C [29]: 90.8%
- viability, T/C [30]: 82.4%
- viability, T/C (second compound 0.316 µM, first compound 3.16 µM): 78.7%
- viability, T/C (second compound 0.316 µM, first compound 10 µM): 77.1%
- viability, T/C [15]: 104%
- viability, T/C [16]: 78.1%
- viability, T/C [31]: 87%
- viability, T/C [32]: 84.5%
- viability, T/C (second compound 1 µM, first compound 3.16 µM): 93.6%
- viability, T/C (second compound 1 µM, first compound 10 µM): 87.4%
- viability, T/C [19]: 105%
- viability, T/C [20]: 102%
- viability, T/C [33]: 89.6%
- viability, T/C [34]: 81.8%
- viability, T/C (second compound 3.16 µM, first compound 3.16 µM): 85.3%
- viability, T/C (second compound 3.16 µM, first compound 10 µM): 83.2%
- viability, T/C [23]: 109%
- viability, T/C [24]: 87.2%
- viability, T/C [35]: 84.6%
- viability, T/C [36]: 97.6%
- viability, T/C (second compound 10 µM, first compound 3.16 µM): 82.3%
- viability, T/C (second compound 10 µM, first compound 10 µM): 84.9%
